The test system of test [1] is ER reporter (E3 ligase dependence). Put plainly: Targeted CRISPR screens, ER reporter K562 cells: E3 ligase used. It is filed as cell-based, human. Particulars: for E3 ligase used for ER degradation: K562 ER reporter, CRISPR screen; for E3 Ligase (Table S2): Supplemental Table S2. The protocol:
To characterize the UPS pathway components involved in SERD-induced ER degradation, we performed CRISPR screens with our ER reporter in the presence multiple SERDs: fulvestrant, GDC-0927, elacestrant, giredestrant, camizestrant, amcenestrant, AZD-9496, brilanestrant, and LSZ-102. […] Taken together, these findings indicate that different classes of SERDs engage distinct ubiquitin ligases and degradation pathways to target ER.
The UPS and tiling CRISPR functional genomics screen was performed following previously described methods.[22] Briefly, the UPS CRISPR library targets 713 E1, E2, E3 ubiquitin ligases, and deubiquitinases and includes controls genes with a total of 2852 guide RNAs, cloned into the pXPR003 backbone. The UBR5 Tiling screen was created by CRISPR-SURF.[29] Viruses were produced in a T-175 format and ten percent by volume of the library virus was added to reporter cell lines in triplicates for transduction. Transduced cells were allowed to recover and expand for nine days, then treated with indicated ligand. Top and bottom 5% of cells by GFP signal were sorted for a total of at least 100,000 cells per replicate. Samples were processed as previously described.[22]
Reporter cell lines were treated with ATRA or 9-cis RA, and then sorted into four populations by eGFP/mCherry fluorescence ratios (Gates A-D), corresponding to the bottom and top 5–10% respectively (Figure S1D).[22],[23] Sorted cells were pelleted, lysed, and processed according to previous studies.[22] Briefly sgRNAs were amplified in two PCRs via Titanium Taq (Takara Bio 639210), Titanium Taq Buffer and 800uM dNTP mix and eight staggered forward primers. The first PCR also contained 200 nM SBS3-Stagger-pXPR003 forward primer and 200 nM SBS12-pXPR003 reverse primer (cycles: 5 minutes at 94°C, 15 × (30 sec at 94°C, 15 sec at 58°C, 30 sec at 72°C), 2 minutes at 72°C). Illumina adapters and barcodes were added in the second PCR (200 nM P5-SBS3 forward primer, 200 nM P7-barcode-SBS12 reverse primer). Samples were pooled and purified by agarose gel-electrophoresis (Qiagen) and NaOAc/isopropanol precipitation. Amplified guides were quantified by next-generation sequencing (Genomics Platform, Broad Institute), and analyzed for enrichment in Gate A over Gate D, representing degradation rescue.

The test system of the next test is ER reporter. Put plainly: ER reporter degradation. It is filed as cell-based, human. The note with it: 1 μM (legend, SERDs).
Test [2] relates to ER. Description: ER degradation after RNF111 or UBR5 knockdown (reporter K562; T47D western). It is filed as cell-based, human. Particulars: K562 ER-GFP, shUBR5 / sgRNF111, Figure S8C, D. The protocol: (§1) Cells were analyzed for GFP vs mCherry expression.
Protein concentration was quantified via Pierce BCA Protein Assay Kit (ThermoFisher, 23225), and equal amounts of lysates were run on either SDS-PAGE 3–8% Tris-Acetate or 4–12% Bis-Tris Protein Gels (NuPAGE, ThermoFisher), then transferred to a PVDF membrane (Biorad, Wet Transfer System). Membranes were blocked for 30 minutes to 1 hour at room temperature in Odyssey Blocking Buffer/PBS (LI-COR Biosciences), and incubated with primary antibodies at 4 °C overnight. Stained membranes were washed three times in Tris-buffered saline with Tween 20 (TBS-T) and incubated for 1 hour at room temperature with secondary IRDye-conjugated antibodies (LI-COR Biosciences). Membranes were washed three times in TBS-T before imaging (Odyssey Imaging System, LI-COR Biosciences).

The subject of test [3] is progesterone receptor (PGR). Put plainly: PGR reporter degradation in U937. The test is classed as cell-based, human. The note with it: for PGR degradation, significance: R5020 vs DMSO, n = 3. Here is the method: Additional NRs that have well-characterized ligand-induced degradation include vitamin D receptor (VDR),[46] progesterone receptor (PGR),[47] and thyroid receptor beta (THRB).[7]
as §1

The subject of test [4] is HR+ HER2- advanced breast cancer. The note with it: cited from earlier work; for clinical trial outcome, phase II: second-line treatment. An excerpt:
page 11: Supplemental Table S2: Clinical Development of Selective Estrogen Receptor Degraders (SERDs), related to Figure 6 Clinical Development Status for HR+ HER2- Advanced Compound Side Chain E3 Ligase Breast Cancer Treatment Fulvestrant Long Alkyl RNF111 FDA approved for first-line and second-line treatments1,2 FDA approved for second-line, ESR1-mutated disease Elacestrant (RAD1901) Basic Amino RNF111 treatment3,4; Ongoing phase III trial for first-line treatment (NCT05512364) Ongoing Phase III trial for first-line treatment Camizestrant (AZD9833) Basic Amino RNF111 (NCT04711252, NCT0496493 ...

In test [5] the test system is ER. Particulars: ref [17], [53]; cited from earlier work. The source says: SERDs are a class of molecules targeting the ER for the treatment of breast cancer. […] Given that UBR5 is similarly recruited to the NR hydrophobic cleft, we hypothesized that fulvestrant and other SERDs may employ a different mechanism for ER degradation. […] One of the best understood SERDs, fulvestrant, drastically remodels the hydrophobic cleft[16],[17] in a manner incompatible with UBR5 or NCOA binding. […] Strikingly, this correlates with clinical utility, hallmarked by the wide use of fulvestrant and recent approval of elacestrant,[53] both of which employ RNF111, in contrast to UBR5 SERDs (Table S2), none of which have been approved for clinical use. The heterogeneity of ER transcriptional pro ...

The subject of test [6] is thyroid receptor beta (THRB). Description: THRB reporter degradation in U937. It is filed as cell-based, human. Particulars: for THRB degradation, significance: T3 vs DMSO, n = 3. The protocol: as §1

Where two headings read alike, the source gives them in different places.

On to `O=C1CC[C@H](N2Cc3cc(N4CCN(CC5CCN(c6ccc([C@@H]7c8ccc(O)cc8CC[C@@H]7c7ccccc7)cc6)CC5)CC4)ccc3C2=O)C(=O)N1` [ARV-471], for which, in test [1], the “E3 ligase used for ER degradation” value is “Cereblon (CRBN)” and the “E3 Ligase (Table S2)” value was “CRBN”. For the same compound, the ER reporter degradation result in the test with ER reporter is “induced ER reporter degradation”.

Consider `C[C@@H]1Cc2c([nH]c3ccccc23)[C@@H](c2c(F)cc(/C=C/C(=O)O)cc2F)N1CC(C)(C)F` [AZD-9496], for which the “regulated class of ER degradation (RNF111 or UBR5)” value (“regulated class of ER degradation” for short) in the test on ER [2] is “UBR5 Regulated”. Further, in test [1], the “E3 ligase used for ER degradation” value is recorded as “required UBR5 for degradation” and the “E3 Ligase (Table S2)” value is “UBR5”. For the same compound, the ER reporter degradation result in the test with ER reporter is given as “induced ER reporter degradation”.

In the case of `CCN(CCCCCOCC(=O)N[C@H](C(=O)N1C[C@H](O)C[C@H]1C(=O)N[C@@H](C)c1ccc(-c2scnc2C)cc1)C(C)(C)C)CCOc1ccc(C(=O)c2c(-c3ccc(O)cc3)sc3cc(O)ccc23)cc1` [ERD-308], in test [1], the “E3 ligase used for ER degradation” value was “von Hippel-Lindau (VHL)” and the “E3 Ligase (Table S2)” value is listed as “VHL”. For the same compound, the ER reporter degradation entry with ER reporter was “induced ER reporter degradation”.

With `CC1=C(c2cccc(O)c2)[C@H](c2ccc(OCCN3CC(CF)C3)cc2)Oc2ccc(O)cc21` [GDC-0927], in test [1], the “E3 ligase used for ER degradation” value is recorded as “employed a different E3 ligase, RNF111” and the “E3 Ligase (Table S2)” value is listed as “RNF111”. Further, the ER reporter degradation result with ER reporter is on record as “induced ER reporter degradation”.

Turning to `CC(F)(F)c1cc(F)ccc1-c1sc2cc(O)ccc2c1Oc1ccc(/C=C/C(=O)O)cc1` [LSZ-102], in the test with ER [2], the “regulated class of ER degradation” value is listed as “UBR5 Regulated”. In test [1], the “E3 ligase used for ER degradation” value is “required UBR5 for degradation” and the “E3 Ligase (Table S2)” value is recorded as “UBR5”. For the same compound, the ER reporter degradation result in the test with ER reporter is on record as “induced ER reporter degradation”.

Consider `CCC(=O)[C@@]1(C)CC[C@H]2[C@@H]3CCC4=CC(=O)CCC4=C3CC[C@@]21C` [R5020], for which, in test [3] (LUC1 shRNA), the “PGR degradation, significance” value is given as “*** (***p<0.0005)”. In addition, in test [3] (LUC2 shRNA), the “PGR degradation, significance” value was “* (*p<0.05)”. Also, in test [3] (U937, R5020), the PGR reporter degradation entry is “confirmed degradation” and the “effect of UBR5 shRNAs on PGR degradation” value is recorded as “rescued degradation”.

As to `O=C(O)c1ccc2c(c1)CCCC(c1ccc(Cl)cc1Cl)=C2c1ccc(O[C@H]2CCN(CCCF)C2)cc1` [amcenestrant], the “regulated class of ER degradation” value in the test with ER [2] is on record as “RNF111 Regulated”. Further, in test [1], the “E3 ligase used for ER degradation” value is given as “employed a different E3 ligase, RNF111” and the “E3 Ligase (Table S2)” value is “RNF111”. Further, the “clinical trial outcome, phase III” value in test [4] (amcenestrant, first-line treatment, NCT04478266, ref 7 (supplement)) is “Failed primary endpoint phase III trial for first-line”. In addition, the “clinical trial outcome, phase II” value in test [4] (amcenestrant, NCT04059484, ref 8 (supplement)) is listed as “Failed primary endpoint in”. Moreover, the ER reporter degradation result in the test on ER reporter is given as “induced ER reporter degradation”.

For `C[C@@H]1Cc2c(ccc3[nH]ncc23)[C@@H](c2ccc(NC3CN(CCCF)C3)cn2)N1CC(F)(F)F` [camizestrant], in the test on ER [2], the “regulated class of ER degradation” value is “RNF111 Regulated”. In test [1], the “E3 ligase used for ER degradation” value is “employed a different E3 ligase, RNF111” and the “E3 Ligase (Table S2)” value is listed as “RNF111”. Moreover, the “clinical trial outcome, phase II” value in test [4] (camizestrant, NCT04214288, ref 5 (supplement)) was “Successful phase II trial”. For the same compound, the ER reporter degradation entry in the test with ER reporter is on record as “induced ER reporter degradation”.

With `CCNCCc1ccc(CN(CC)c2cc(OC)ccc2[C@@H]2CCc3cc(O)ccc3C2)cc1` [elacestrant], the “regulated class of ER degradation” value in the test on ER [2] is “RNF111 Regulated”. In test [1], the “E3 ligase used for ER degradation” value was “employed a different E3 ligase, RNF111” and the “E3 Ligase (Table S2)” value was “RNF111”. For the same compound, the “ER degradation (literature)” value in the test with ER [5] is recorded as “lead to ER degradation”. Also, the ER reporter degradation entry in the test with ER reporter is recorded as “induced ER reporter degradation”.

As for `C[C@@H]1Cc2c([nH]c3ccccc23)[C@@H](c2c(F)cc(NC3CN(CCCF)C3)cc2F)N1CC(F)(F)CO` [giredestrant], in the test with ER [2], the “regulated class of ER degradation” value is on record as “RNF111 Regulated”. Moreover, in test [1], the “E3 ligase used for ER degradation” value is “employed a different E3 ligase, RNF111” and the “E3 Ligase (Table S2)” value is listed as “RNF111”. Further, the “clinical trial outcome, phase II” value in test [4] (giredestrant, NCT04576455, ref 6 (supplement)) was “Failed primary endpoint in phase II trial”. Further, in the test on ER reporter, the ER reporter degradation entry is “induced ER reporter degradation”.

As to `N[C@@H](Cc1cc(I)c(Oc2cc(I)c(O)c(I)c2)c(I)c1)C(=O)O` [levothyroxine [T3], levothyroxine], the “THRB degradation, significance” value in test [6] (LUC1 shRNA), in test [6] (LUC2 shRNA), in test [6] (UBR5-1 shRNA) and in test [6] (UBR5-2 shRNA) was “** (**p<0.005)” throughout. The THRB reporter degradation entry in test [6] (U937, T3) is recorded as “confirmed degradation”. In test [6] (U937, T3), the “UBR5 dependence of THRB degradation” value is given as “not dependent on UBR5”.

(Values after article PMC11134608, “UBR5 forms ligand-dependent complexes on chromatin to regulate nuclear hormone receptor stability” (Molecular cell, 2023).)
